Experiments:
[1] = biological target: Beta-3 adrenergic receptor (Canis lupus familiaris, UniProt O02662); assay: Agonist activity at dog cloned adrenergic beta3 receptor expressed in CHO cells assessed as cAMP accumulation; type: functional, cell-based
[2] = biological target: Beta-1 adrenergic receptor (Homo sapiens, UniProt P08588)
Description: Agonist activity at human cloned adrenergic beta-1 receptor expressed in CHO cells assessed as cAMP accumulation

[3] = biological target: Beta-3 adrenergic receptor (Canis lupus familiaris) (UniProt O02662); assay: Agonist activity at dog cloned adrenergic beta3 receptor assessed as inhibition of carbachol-induced increase in intravesical pressure at 10 ug/kg, iv; type: functional
CHO = assay: Selectivity for human cloned adrenergic beta-1 receptor over human cloned adrenergic beta3 receptor expressed in CHO cells; type: cell-based
[4] = biological target: Beta-3 adrenergic receptor (Homo sapiens, UniProt P13945); assay: Agonist activity at human cloned adrenergic beta3 receptor expressed in CHO cells assessed as cAMP accumulation; type: functional, cell-based
[5] = biological target: Beta-3 adrenergic receptor (Canis lupus familiaris) (UniProt O02662); assay: Agonist activity at dog cloned adrenergic beta3 receptor assessed as inhibition of carbachol-induced increase in intravesical pressure at 32 ug/kg, iv; type: functional

Beta-1 adrenergic receptor, sequence (P08588 whole entry): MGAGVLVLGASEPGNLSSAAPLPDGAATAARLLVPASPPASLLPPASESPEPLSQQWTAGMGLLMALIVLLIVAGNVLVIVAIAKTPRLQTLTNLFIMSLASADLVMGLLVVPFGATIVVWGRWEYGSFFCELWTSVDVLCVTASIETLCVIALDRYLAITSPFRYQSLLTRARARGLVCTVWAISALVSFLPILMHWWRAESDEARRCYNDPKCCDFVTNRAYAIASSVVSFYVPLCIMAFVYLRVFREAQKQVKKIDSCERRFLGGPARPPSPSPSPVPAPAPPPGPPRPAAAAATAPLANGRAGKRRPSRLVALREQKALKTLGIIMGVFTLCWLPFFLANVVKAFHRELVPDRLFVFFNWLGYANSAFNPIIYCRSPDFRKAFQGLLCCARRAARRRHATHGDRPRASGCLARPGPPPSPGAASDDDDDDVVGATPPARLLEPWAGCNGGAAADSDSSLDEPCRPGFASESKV
Beta-3 adrenergic receptor (Canis lupus familiaris), sequence (O02662 whole entry): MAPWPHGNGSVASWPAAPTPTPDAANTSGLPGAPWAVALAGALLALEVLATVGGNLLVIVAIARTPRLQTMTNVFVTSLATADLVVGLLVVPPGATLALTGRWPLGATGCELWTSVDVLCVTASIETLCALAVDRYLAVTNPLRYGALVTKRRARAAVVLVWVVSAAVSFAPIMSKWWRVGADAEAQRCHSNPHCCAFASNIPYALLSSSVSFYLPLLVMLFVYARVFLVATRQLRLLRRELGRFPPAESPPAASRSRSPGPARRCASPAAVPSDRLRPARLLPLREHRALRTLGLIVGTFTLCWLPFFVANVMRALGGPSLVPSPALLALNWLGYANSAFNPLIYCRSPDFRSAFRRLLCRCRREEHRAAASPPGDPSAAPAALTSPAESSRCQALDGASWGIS
Beta-3 adrenergic receptor (Canis lupus familiaris, UniProt O02662), sequence (O02662 whole entry): as above
Beta-3 adrenergic receptor (Homo sapiens, UniProt P13945), sequence (P13945 whole entry): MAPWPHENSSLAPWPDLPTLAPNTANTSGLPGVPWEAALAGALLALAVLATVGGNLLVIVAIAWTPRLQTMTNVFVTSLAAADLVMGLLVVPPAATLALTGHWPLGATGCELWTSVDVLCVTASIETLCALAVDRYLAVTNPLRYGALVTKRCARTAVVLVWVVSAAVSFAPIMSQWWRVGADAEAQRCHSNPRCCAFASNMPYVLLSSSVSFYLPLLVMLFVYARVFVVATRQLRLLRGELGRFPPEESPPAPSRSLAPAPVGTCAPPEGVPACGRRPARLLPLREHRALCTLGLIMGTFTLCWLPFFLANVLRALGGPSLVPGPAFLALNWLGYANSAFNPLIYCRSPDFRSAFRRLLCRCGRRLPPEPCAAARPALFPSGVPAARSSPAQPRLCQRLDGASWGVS

SMILES | EC50 [1] | EC50 [2] | inhibition [3] | EC50 [4] | inhibition [5] | Ratio EC50 (CHO)
C[C@H](Cc1cccc(Oc2cccc(C(=O)O)c2)c1)NC[C@H](O)c1cccc(Cl)c1 |  | 28 nM |  | 1.9 nM |  | 15
COc1ccc(Oc2cccc(CCNC[C@H](O)c3cccc(Cl)c3)c2)cc1C(=O)O |  | 510 nM |  | 11 nM |  | 46
O=C(O)c1cc(Oc2cccc(CCNC[C@H](O)c3cccc(Cl)c3)c2)ccc1F |  | 140 nM |  | 9.4 nM |  | 15
O=C(O)c1cc(NC(=O)c2ccccc2)cc(Oc2cccc(CCNC[C@H](O)c3cccc(Cl)c3)c2)c1 |  | 190 nM |  | 21 nM |  | 9
O=C(O)c1ccc(Oc2cccc(CCNC[C@H](O)c3cccc(Cl)c3)c2)cc1 |  | > 100 nM |  | 60 nM |  | 
CC(=O)Nc1ccc(Oc2cccc(CCNC[C@H](O)c3cccnc3)c2)cc1C(=O)O |  | 190 nM |  | 12 nM |  | 16
CC(C)(C)C(=O)Nc1ccc(Oc2cccc(CCNC[C@H](O)c3cccc(Cl)c3)c2)cc1C(=O)O | 1.6 nM | 620 nM |  | 4.6 nM | 30% | 135
O=C(Nc1ccc(Oc2cccc(CCNC[C@H](O)c3cccc(Cl)c3)c2)cc1C(=O)O)c1ccccc1 |  | 130 nM |  | 8.6 nM |  | 15
CC(=O)Nc1ccc(Oc2cccc(CCNC[C@H](O)c3cccc(Cl)c3)c2)cc1C(=O)O |  | 380 nM |  | 7.2 nM |  | 53

Continued, in another order:

EC50 [1] | EC50 [2] | inhibition [3] | EC50 [4] | inhibition [5] | SMILES | Ratio EC50 (CHO)
3.2 nM | 810 nM | 43% | 3.4 nM |  | CC(C)Oc1ccc(Oc2cccc(CCNC[C@H](O)c3cccc(Cl)c3)c2)cc1C(=O)O | 238
 | 690 nM |  | 56 nM |  | COc1ccc(Oc2cccc(CCNC[C@H](O)c3cccnc3)c2)cc1C(=O)O | 12
 | > 100 nM |  | 14 nM |  | O=C(O)c1cccc(Oc2cccc(CCNC[C@H](O)c3cccc(Cl)c3)c2)c1 | > 7.1
1.9 nM | > 1000 nM |  | 6.6 nM | 84% | O=C(O)c1cc(Oc2cccc(CCNC[C@H](O)c3cccc(Cl)c3)c2)ccc1N1CCCC1=O | > 152
 | 64 nM |  | 9.5 nM |  | O=C(O)c1cc(Oc2cccc(CCNC[C@H](O)c3cccc(Cl)c3)c2)ccc1Cl | 6.7
 | 550 nM |  | 13 nM |  | Cc1ccc(Oc2cccc(CCNC[C@H](O)c3cccc(Cl)c3)c2)cc1C(=O)O | 42
 | 840 nM |  | 31 nM |  | O=C(O)c1cc(Oc2cccc(CCNC[C@H](O)c3cccnc3)c2)ccc1F | 27
 | 240 nM |  | 6.5 nM |  | CC(=O)Nc1cc(Oc2cccc(CCNC[C@H](O)c3cccc(Cl)c3)c2)cc(C(=O)O)c1 | 37

From ChEMBL document CHEMBL1144172, “Discovery of novel series of benzoic acid derivatives containing biphenyl ether moiety as potent and selective human beta(3)-adrenergic receptor agonists: Part IV” (Bioorg Med Chem Lett, 2008)
